≈ marks a conversion by molar mass, not a printed value. Read-outs that look alike come from different tables or passages of the source.
How the values were obtained:
[1] = parameters: method as in PMID 30247876; conditions: reactive metabolite formation, previous observations; cited from earlier work
MRSA USA300 [2] = test system: MRSA USA300; parameters: method as in PMID 30247876; conditions: previous observations; cited from earlier work
[3] = test system: E. coli JW55031 (tolC-mutant); test: microbe, parasite or virus in culture; type: cell-based, Escherichia coli; conditions: Escherichia coli
Outline: (§1)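 Broth microdilution per CLSI with ~5 × 10^5 CFU/mL inoculum and serially diluted compounds. S. aureus and E. coli were tested in CAMHB, aerobic, 37 °C, 18–20 h; C. difficile in supplemented brain heart infusion broth (yeast extract, hemin, vitamin K), anaerobic, 37 °C, 48 h. MIC read as visible growth.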

[4] = test system: Lactobacillus crispatus HM-370; test: Broth microdilution MIC against normal human microbiota; type: cell-based; conditions: HM370
Protocol: (§2) Broth microdilution was utilized to determine the activity of bisphenylthiazoles against the human gut microflora as described elsewhere. A bacterial solution equivalent to 0.5 McFarland standards was prepared and diluted in MRS broth to achieve a bacterial concentration of approximately 5 x 10^5 CFU/mL. Then, compounds/control antifungals (in triplicates), were added to the plates and serially diluted with media containing bacteria. The plates were incubated for 48 hours at 37 °C before recording the MIC values. The experiment was repeated three independent times.

[5] = test system: Lactobacillus casei ATCC-334; test: as above; type: cell-based; conditions: Lacticaseibacillus casei, ATCC334
Protocol: as §2

[6] = test system: Lactobacillus gasseri HM-400; test: as above; type: cell-based; conditions: HM400
Protocol: as §2

[7] = test system: E. coli BW25113 (wild-type); test: Broth microdilution MIC, initial antibacterial screening; type: cell-based, Escherichia coli; conditions: Escherichia coli, read-out: MIC
Outline: as §1

MRSA USA300 [8] = test: as above; type: cell-based, S. aureus; conditions: Staphylococcus aureus; MRSA USA300; read-out: MIC
Outline: as §1

Candida parapsilosis = test: Antifungal broth microdilution MIC (50% growth inhibition); type: cell-based; conditions: Lodderomyces parapsilosis, read-out: MIC
Protocol: (§3) Serial dilutions (from 128 μg/mL to 0.06 μg/mL) of the tested compounds and control drugs (fluconazole, itraconazole and amphotericin) (in triplicates), were screened against clinical isolates of Candida albicans, Candida auris, Candida glabrata, Candida parapsilosis, Candida tropicalis, Candida krusei, Cryptococcus neoformans, Cryptococcus gattii and Aspergillus fumigatus species using the broth microdilution method according to the Clinical and Laboratory Standards Institute guidelines. MICs were determined as the lowest concentration of the compounds that inhibited the fungal growth by 50% after incubation at 35 °C for 24 h (for Candida and Aspergillus), or 48 h (for Cryptococcus). The minimum fungicidal concentration (MFC) of these compounds was tested by plating 4 μL from wells with no growth onto YPD agar plates. The plates were incubated at 37 °C for 24 hours before recording the MFC, which was categorized as the lowest concentration that reduced fungal growth by 99.9% [45]. The experiment was repeated three independent times.

Aspergillus fumigatus = test: as above; type: cell-based; conditions: Aspergillus fumigatus, read-out: MIC
Protocol: as §3

Cryptococcus neoformans = test: Antifungal broth microdilution MIC (50% growth inhibition, 48 h); type: cell-based; conditions: Cryptococcus neoformans, read-out: MIC
Protocol: as §3

Cryptococcus gattii = test: as above; type: cell-based; conditions: Cryptococcus gattii, read-out: MIC
Protocol: as §3

[9] = test system: human colorectal cells (Caco-2); test: In vitro cytotoxicity, MTS assay; conditions: human, 24 h
Protocol: (§4) Fig 2 In vitro cytotoxicity assay of bisphenylthiazole compounds 7, 16 and 17 (tested in triplicates at 32, 64 and 128 μg/mL) against: A) human colorectal cells (Caco-2), and B) monkey kidney epithelial cells (Vero) after 24-hours exposure time, using the MTS 3-(4,5-dimethylthiazol-2-yl)-5-(3-carboxymethoxyphenyl)-2-(4-sulfophenyl)-2H-tetrazolium) assay. The data represent the percentage of viable Caco-2 or Vero cells measured as the average absorbance relative to DMSO after exposure to the tested compounds. Dimethyl sulfoxide (DMSO) was used as a negative control. Error bars represent the standard deviation values.
(§5) To explore the tolerability of bisphenylthiazoles, their cytotoxicity profile was assessed in human colorectal adenocarcinoma (Caco-2) and monkey kidney epithelial cells (Vero) as described earlier. Briefly, compounds were incubated with the cells for 24 hours. Then, cells were incubated with MTS reagent for 3 hours before measuring the absorbance values (OD490). The experiment was repeated in two independent times.

[10] = test system: monkey kidney epithelial cells (Vero); test: In vitro cytotoxicity, MTS assay; conditions: Vero, 24 h exposure, MTS
Protocol: as §4, §5

[11] = test system: C. difficile ATCC BAA1870; test: Broth microdilution MIC, initial antibacterial screening (anaerobic); type: cell-based, Clostridioides difficile; conditions: Clostridioides difficile, ATCCBAA1870, read-out: MIC
Outline: as §1

[12] = GSH trap (reactive metabolite); type: in vitro ADME; conditions: reactive metabolite formation
Candida auris [13] = test: Antifungal broth microdilution MIC (50% growth inhibition) and MFC; type: cell-based
Outline: (§6)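 MICs came from CLSI broth microdilution against clinical isolates, scored as 50% inhibition at 35 °C after 24 h (Candida) or 48 h (Cryptococcus). MFC is the lowest concentration cutting growth by 99.9% on YPD agar.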

Candida tropicalis = test: as above; type: cell-based; conditions: Candida tropicalis, ATCC1369, C. tropicalis ATCC 1369; for MIC: read-out: MIC
Outline: as §6

Candida albicans = test: as above; type: cell-based; conditions: Candida albicans; for MIC: read-out: MIC
Outline: as §6

Candida glabrata = test: as above; type: cell-based; conditions: Nakaseomyces glabratus, read-out: MIC
Outline: as §6

Candida krusei = test: as above; type: cell-based; conditions: Pichia kudriavzevii; for MIC: read-out: MIC
Outline: as §6

Candida strains = test: Minimum fungicidal concentration, summary over Candida strains; type: cell-based; conditions: strains of Table 6
Protocol: as §3

Candida auris [14] = test: Checkerboard assay of compound 17 with standard antifungals; type: cell-based; conditions: for Interpretation of interaction: antifungal combined with compound 17; for MIC Combined, Antifungal: antifungal in combination with compound 17; for MIC: Candidozyma auris, checkerboard, agent alone
[15] = ATCC22019, C. parapsilosis ATCC 22019
[16] = Candidozyma auris, C. auris 381, read-out: MIC
[17] = Candidozyma auris, C. auris 382, read-out: MIC
[18] = Candidozyma auris, C. auris 387, read-out: MIC
[19] = ATCC10231, C. albicans ATCC 10231
[20] = C. albicans NR-29448 (fluconazole-resistant)
[21] = ATCC34135, C. krusei ATCC 34135
[22] = Candida auris 381 (azole-sensitive)
[23] = Candida auris 385 (azole-resistant)

Cc1nc(-c2ccc(-c3ccccc3)cc2)sc1-c1nnc(NN)o1 [Compound 1]
GSH trap [1]: +ve | MIC (MRSA) (MRSA USA300 [2]): 3 µg/mL (≈ 8.59 µM)

Cc1nc(-c2ccc(-c3ccccc3)cc2)sc1-c1nnc(NCCN)o1 [Compound 7, N-{5-[2-((1,1’-Biphenyl)-4-yl)-4-methylthiazol-5-yl]-1,3,4-oxadiazol-2-yl}ethane-1,2-diamine]
melting point: 145 to 146 °C | MIC [3]: 64 µg/mL (≈ 170 µM) | MIC ([4]; Lactobacillus crispatus HM-370, read-out: MIC): > 128 µg/mL | MIC ([5]; Lactobacillus casei ATCC-334, read-out: MIC): > 128 µg/mL | MIC ([6]; Lactobacillus gasseri HM-400, read-out: MIC): 64 µg/mL (≈ 170 µM) | MIC [7]: > 64 µg/mL | MIC (MRSA USA300 [8]): 32 µg/mL (≈ 84.8 µM) | MIC (Candida parapsilosis; [15]): 2 µg/mL (≈ 5.3 µM) | MIC (Candida parapsilosis; C. parapsilosis CAB 502638): 2 µg/mL (≈ 5.3 µM) | MIC (Aspergillus fumigatus; A. fumigatus NR 35303): 16 µg/mL (≈ 42.4 µM) | MIC (Aspergillus fumigatus; A. fumigatus NR 35304): 8 µg/mL (≈ 21.2 µM) | MIC (Cryptococcus neoformans; C. neoformans NR 41298): 2 µg/mL (≈ 5.3 µM) | MIC (Cryptococcus neoformans; C. neoformans NR 41300): 4 µg/mL (≈ 10.6 µM) | MIC (Cryptococcus neoformans; C. neoformans NR 48770): 2 µg/mL (≈ 5.3 µM) | MIC (Cryptococcus gattii; C. gattii NR 43209): 2 µg/mL (≈ 5.3 µM) | MIC (Cryptococcus gattii; C. gattii NR 43210): 2 µg/mL (≈ 5.3 µM) | concentration up to which non-toxic [9]: ≤ 64 µg/mL | concentration up to which non-toxic [10]: ≤ 64 µg/mL | MIC [11]: > 64 µg/mL | GSH trap [12]: -ve | MIC (Candida auris [13]; [16]): 8 µg/mL (≈ 21.2 µM) | MIC (Candida auris [13]; [17]): 8 µg/mL (≈ 21.2 µM) | MIC (Candida auris [13]; Candidozyma auris, C. auris 383, read-out: MIC): 2 µg/mL (≈ 5.3 µM) | MIC (Candida auris [13]; Candidozyma auris, C. auris 384, read-out: MIC): 4 µg/mL (≈ 10.6 µM) | MIC (Candida auris [13]; Candidozyma auris, C. auris 385, read-out: MIC): 4 µg/mL (≈ 10.6 µM) | MIC (Candida auris [13]; Candidozyma auris, C. auris 386, read-out: MIC): 8 µg/mL (≈ 21.2 µM) | MIC (Candida auris [13]; [18]): 8 µg/mL (≈ 21.2 µM) | MIC (Candida auris [13]; Candidozyma auris, C. auris 388, read-out: MIC): 4 µg/mL (≈ 10.6 µM) | MIC (Candida auris [13]; Candidozyma auris, C. auris 389, read-out: MIC): 8 µg/mL (≈ 21.2 µM) | MIC (Candida auris [13]; Candidozyma auris, C. auris 390, read-out: MIC): 2 µg/mL (≈ 5.3 µM) | MIC (Candida tropicalis): 8 µg/mL (≈ 21.2 µM) | MIC (Candida albicans; [19]): 8 µg/mL (≈ 21.2 µM) | MIC (Candida albicans; [20]): 16 µg/mL (≈ 42.4 µM) | MIC (Candida albicans; C. albicans SS5314 (wild-type)): 4 µg/mL (≈ 10.6 µM) | MIC (Candida glabrata; ATCC66032, C. glabrata ATCC 66032): 2 µg/mL (≈ 5.3 µM) | MIC (Candida glabrata; C. glabrata ATCC MYA-2950): 1 µg/mL (≈ 2.65 µM) | MIC (Candida krusei; [21]): 2 µg/mL (≈ 5.3 µM) | MIC (Candida krusei; C. krusei CAB 396420): 2 µg/mL (≈ 5.3 µM)

OC(Cn1cncn1)(Cn1cncn1)c1ccc(F)cc1F [Fluconazole, reference compound]
MIC ([4]; Lactobacillus crispatus): > 128 µg/mL | MIC [5]: > 128 µg/mL | MIC ([6]; Lactobacillus gasseri): > 128 µg/mL | MIC (Candida parapsilosis; [15]): 1 µg/mL (≈ 3.27 µM) | MIC (Candida parapsilosis; C. parapsilosis CAB 502638): 0.5 µg/mL (≈ 1.63 µM) | fungistatic or fungicidal activity (Candida strains): fungistatic | Interpretation of interaction (Candida auris [14]; [22]): ADD (FICI values of >0.5–1.25 were categorized as additive (ADD)) | MIC Combined, Antifungal (Candida auris [14]; [22]): 1 µg/mL | Interpretation of interaction (Candida auris [14]; [23]): ADD (FICI values of >0.5–1.25 were categorized as additive (ADD)) | MIC Combined, Antifungal (Candida auris [14]; [23]): 0.25 µg/mL | MIC (Candida auris [14]; [22]): 1 µg/mL | MIC (Candida auris [14]; [23]): > 128 µg/mL | MIC (Cryptococcus neoformans; C. neoformans NR 41298): 2 µg/mL (≈ 6.53 µM) | MIC (Cryptococcus neoformans; C. neoformans NR 41300): 1 µg/mL (≈ 3.27 µM) | MIC (Cryptococcus neoformans; C. neoformans NR 48770): 2 µg/mL (≈ 6.53 µM) | MIC (Cryptococcus gattii; C. gattii NR 43209): 4 µg/mL (≈ 13.1 µM) | MIC (Cryptococcus gattii; C. gattii NR 43210): 4 µg/mL (≈ 13.1 µM) | MIC (Candida auris [13]; C. auris 383): >128 µg/mL | MIC (Candida auris [13]; C. auris 384): >128 µg/mL | MIC (Candida auris [13]; C. auris 385): >128 µg/mL | MIC (Candida auris [13]; C. auris 386): >128 µg/mL | MIC (Candida auris [13]; C. auris 389): >128 µg/mL | MIC (Candida auris [13]; C. auris 390): >128 µg/mL | MFC (Candida auris [13]; Candida auris 390): >128 µg/mL | MIC (Candida auris [13]; [16]): 1 µg/mL (≈ 3.27 µM) | MIC (Candida auris [13]; [17]): 8 µg/mL (≈ 26.1 µM) | MIC (Candida auris [13]; [18]): 8 µg/mL (≈ 26.1 µM) | MFC (Candida auris [13]; Candidozyma auris, Candida auris 389, read-out: MFC): > 128 µg/mL | MFC (Candida tropicalis): > 128 µg/mL | MIC (Candida tropicalis): 0.5 µg/mL (≈ 1.63 µM) | MFC (Candida albicans; [19]): > 128 µg/mL | MIC (Candida albicans; [19]): 1 µg/mL (≈ 3.27 µM) | MIC (Candida albicans; [20]): > 128 µg/mL | MIC (Candida albicans; C. albicans SS5314 (wild-type)): 1 µg/mL (≈ 3.27 µM) | MFC (Candida albicans; C. albicans NR-29448): > 128 µg/mL | MIC (Candida krusei; [21]): 16 µg/mL (≈ 52.2 µM) | MFC (Candida krusei; C. krusei CAB 396420): > 128 µg/mL | MIC (Candida krusei; C. krusei CAB 396420): 16 µg/mL (≈ 52.2 µM)

Source: article PMC8568133, “Evaluation of bisphenylthiazoles as a promising class for combating multidrug-resistant fungal infections” (PLoS ONE, 2021)
